# Source: ChEMBL document CHEMBL4811262, “Parallel discovery of selective and dual inhibitors of tryptophan dioxygenases IDO1 and TDO2 with a newly-modified enzymatic assay” (Bioorg Med Chem, 2021)
# How the values were obtained:
# [1] = target: T1, Indoleamine 2,3-dioxygenase 1 (Homo sapiens, UniProt P14902); experiment: Inhibition of recombinant human IDO1 expressed in Escherichia coli EC538 assessed as reduction in N-formylkynurenine formation using L-tryptophan as substrate incubated for 30 mins by methylene blue reagent based concurrent assay
# T1 sequence (P14902 whole entry): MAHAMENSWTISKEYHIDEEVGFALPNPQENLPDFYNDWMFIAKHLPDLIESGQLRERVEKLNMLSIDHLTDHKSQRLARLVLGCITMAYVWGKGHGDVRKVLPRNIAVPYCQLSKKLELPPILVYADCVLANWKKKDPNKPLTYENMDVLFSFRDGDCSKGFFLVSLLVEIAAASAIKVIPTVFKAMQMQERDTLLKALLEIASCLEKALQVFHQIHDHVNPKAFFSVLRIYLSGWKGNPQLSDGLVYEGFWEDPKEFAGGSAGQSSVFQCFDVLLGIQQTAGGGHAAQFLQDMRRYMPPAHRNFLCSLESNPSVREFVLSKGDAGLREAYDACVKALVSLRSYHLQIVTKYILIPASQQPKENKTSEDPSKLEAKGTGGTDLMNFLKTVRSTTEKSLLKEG
# [2] = target: T2, Tryptophan 2,3-dioxygenase (Homo sapiens, UniProt P48775); experiment: Inhibition of recombinant human TDO2 expressed in Escherichia coli BL21 (DE3) assessed as reduction in N-formylkynurenine formation using L-tryptophan as substrate incubated for 30 mins by methylene blue reagent based concurrent assay
# T2 sequence (P48775 whole entry): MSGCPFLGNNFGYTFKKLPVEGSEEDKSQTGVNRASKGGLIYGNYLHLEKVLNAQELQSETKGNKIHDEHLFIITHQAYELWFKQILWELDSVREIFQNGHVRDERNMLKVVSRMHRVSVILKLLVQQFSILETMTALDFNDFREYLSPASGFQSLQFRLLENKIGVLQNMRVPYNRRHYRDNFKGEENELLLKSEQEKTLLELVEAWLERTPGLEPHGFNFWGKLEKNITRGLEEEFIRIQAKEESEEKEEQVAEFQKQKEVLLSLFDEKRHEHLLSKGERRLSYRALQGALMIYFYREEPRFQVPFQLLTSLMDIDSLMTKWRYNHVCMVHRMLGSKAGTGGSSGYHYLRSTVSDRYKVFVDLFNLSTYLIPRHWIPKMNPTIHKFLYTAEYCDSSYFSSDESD
# [3] = target: T2, Tryptophan 2,3-dioxygenase; experiment: Inhibition of recombinant human TDO2 expressed in Escherichia coli BL21 (DE3) assessed as reduction in N-formylkynurenine formation using L-tryptophan as substrate incubated for 30 mins by methylene blue reagent based assay
# [4] = target: Tryptophan 2,3-dioxygenase (Rattus norvegicus, UniProt P21643); experiment: Inhibition of TDO2 in rat liver homogenate assessed as reduction in N-formylkynurenine formation using L-tryptophan as substrate incubated for 1 hr; assay type: tissue-based
# Chain of Tryptophan 2,3-dioxygenase (Rattus norvegicus, UniProt P21643) (P21643 whole entry): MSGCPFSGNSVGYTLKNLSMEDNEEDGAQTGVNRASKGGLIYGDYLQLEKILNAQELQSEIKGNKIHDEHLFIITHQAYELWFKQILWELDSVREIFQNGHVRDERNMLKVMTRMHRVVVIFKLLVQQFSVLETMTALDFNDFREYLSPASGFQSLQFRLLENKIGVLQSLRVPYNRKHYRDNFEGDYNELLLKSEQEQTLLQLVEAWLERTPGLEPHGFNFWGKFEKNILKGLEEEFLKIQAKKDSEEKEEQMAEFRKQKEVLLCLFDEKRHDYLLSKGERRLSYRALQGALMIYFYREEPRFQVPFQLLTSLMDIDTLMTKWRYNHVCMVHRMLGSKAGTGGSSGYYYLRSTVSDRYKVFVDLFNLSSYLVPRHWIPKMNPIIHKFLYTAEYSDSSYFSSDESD
# [5] = target: T1, Indoleamine 2,3-dioxygenase 1; experiment: Inhibition of recombinant human IDO1 expressed in Escherichia coli EC538 assessed as reduction in N-formylkynurenine formation using L-tryptophan as substrate incubated for 30 mins by methylene blue reagent based assay
Structure (SMILES),IC50 [1] [µM],IC50 [2] [µM],IC50 [3] [µM],IC50 [4] [µM],IC50 [5] [µM]
CC1=C(O)C(=O)C=C2C1=CC=C1[C@@]2(C)CC[C@@]2(C)[C@@H]3C[C@](C)(C(=O)O)CC[C@]3(C)CC[C@]12C [CELASTROL],8.41,> 100,,,
Oc1ccccc1-c1nc2c3ccccc3c3ccccc3c2[nH]1,11.8,12.3,,,
Nc1nonc1C(=NO)Nc1ccc(F)c(Cl)c1,,3.62,3.47,,
Cc1cc(=O)n2c3c(c4c(cc13)c(CN(C)C)cc(=O)n4C)OC2,27,17.6,,,
O=[N+]([O-])/C=C/c1cc2ccccc2[nH]1,2.79,> 100,,,
O=[N+]([O-])c1cc([N+](=O)[O-])c2cccnc2c1O,11.1,22.7,,,
CC1Oc2cc3c(-c4c(O)cc(O)c5c(O)c6c(cc45)OC(C)C(C)C6=O)c(O)cc(O)c3c(O)c2C(=O)C1C (centres undefined),44.1,48.6,,,
NS(=O)(=O)NCCNc1nonc1C(=NO)Nc1ccc(F)c(Br)c1 [EPACADOSTAT],,3.43,2.12,,
O=C1c2ccccc2C2=C3C(O)=NN=C3CCN12,1.72,4.35,,,
Fc1ccc2c(/C=C/c3cccnc3)c[nH]c2c1,478,,,0.05,350
O=S(=O)(/N=C/c1c(O)ccc2ccccc12)c1cccs1,1.39,11.3,,,
O=[N+]([O-])c1cc(F)c2cccnc2c1O,14.6,30.2,,,
O=Cc1ccc(O)c2ncccc12,4.37,> 100,,,
COCCn1c2nc(=O)n(-c3ccccc3)c(=O)c-2nc2ccccc21,23.8,33.7,,,
